Measurements from patent US20210137903A1, “ANTI-ANDROGENS FOR THE TREATMENT OF PROSTRATE CANCER” (priority 2019, published 2021).
Like-named read-outs stand apart in the source and are kept apart here.

Columns and labels:
[1] = Biopharmaceutics Classification System classification; type: physicochemical; settings: highly permeable and poorly soluble
Text: (§1) Apalutamide is a Biopharmaceutics Classification System Class II drug (highly permeable and poorly soluble). The commercialized formulation is a spray dried powder of amorphous apalutamide.

[2] = tested on: non-castrate hormone-sensitive and bicalutamide-resistant human prostate cancer xenograft models; settings: cited from earlier work
CRPC = assay: Phase II clinical trial, apalutamide 240 mg continuous daily dosing in CRPC; type: in vivo, human; settings: for patients with 12-week PSA declines of >50% or more from baseline: 240 mg daily
Text: The primary objective was to assess antitumor activity and PSA kinetics as defined by the Prostate Cancer Clinical Trials Working Group (PCWG2) criteria. […] The median time to PSA progression was not reached for the TN cohort during the preliminary 12-week period, and was 16 weeks in the PA cohort.
The median time to PSA progression was not reached in this observed time period.

[3] = Single-dose 14C-apalutamide absolute bioavailability and microtracer study; set-up: species or system human; settings: in vivo
[4] = Example 1 relative bioavailability study: pharmacokinetics, whole tablets vs mixture in applesauce; type: in vivo, human; settings: n=10
Procedure: This was a randomized, open-label, balanced, single dose, two-treatment, two-period, two-sequence, crossover relative bioavailability study.
Healthy male subjects were randomly assigned to 1 of 2 treatment sequences by following the randomization scheme as given below.
All study drug were taken in the morning on Day 1 of each treatment period. […] For Treatment B, the study drug-applesauce mixture was prepared by a pharmaceutical technician or pharmacist. An additional 50 mL of water for either treatments was allowed if necessary. Study drug of Treatment B was be ingested within 5 minutes. Treatment A was be swallowed whole and not chewed, divided, dissolved, or crushed.
Additional PK parameters could be included if deemed appropriate.
Pharmacokinetic analysis was performed by or under the responsibility of the sponsor.
Pharmacokinetic and statistical analysis were done using Phoenix™ WinNonlin® (Tripos L.P.). Noncompartmental analysis was applied for the pharmacokinetic analysis. Furthermore, Microsoft Excel® (Microsoft, Redmond, Wash., United States), and SAS (SAS Institute Inc., Cary, N.C., US) were used.
If one of the PK parameters could not be determined for a given subject in 1 or more periods, the subject's data was not included in the statistical analysis of that particular PK parameter. The analysis was performed on log-transformed PK parameters.
A mixed effect model that includes treatment, period, and treatment sequence as fixed effects, and subject as a random effect, was used to estimate the least squares means and intrasubject variance. Using these estimated least squares means and intrasubject variance, the point estimate and 90% CIs for the difference in means on a log scale between test and reference were constructed. The limits of the CIs was retransformed using antilogarithms to obtain 90% CIs for the geometric mean ratios of Cmax and AUC0-168 h of the test to reference formulation. A similar analysis was conducted for AUC0-72 h for supplemental purpose.

[5] = Single 240-mg dose pharmacokinetics in healthy subjects (earlier studies); type: in vivo, human
Text: as §1

[6] = Dosing accuracy, chemical stability and appearance of apalutamide tablets dispersed in applesauce (UHPLC); type: physicochemical
Procedure: The tablet core weight was 700 mg. […] Appearance was determined visually. Dosing accuracy and chemical stability (the concentration and impurities) were measured using the following UHPLC Procedure. The reagents used in the UHPLC procedure were demineralized water, ammonium acetate, trifluoroacetic acid and acetonitrile. Mobile Phase A was a 10 mM NH4Ac+01% TFA/Acetonitrile (90/10 v/v) solution prepared as follows. 0.77 g Ammonium acetate (NH4Ac) was transferred into a 1000 mL volumetric flask. […] Mobile Phase B was acetonitrile. Sample solutions were prepared as described in the individual examples which follow hereinafter. [table] For chemical stability (chromatographic characteristics) the identity of impurities were assigned based on comparison of their Relative Retention Times (RRT) to known retention times, or retention times determined using reference solutions. […] The mixture was gently mixed in the container with a spatula for 10 seconds and the time recorded. The hold time of the sample was calculated against the moment the tablets were added to the mixture. After 15 minutes, the mixture was again gently mixed with a spatula for 10 seconds and the time recorded. After an additional 15 minutes, the mixture was again gently mixed with a spatula for until a uniform mixture was formed (at least 10 seconds) and the time recorded. […]

[7] = Safety in healthy subjects (previous single-dose studies); type: in vivo
Text: Healthy subjects are commonly selected for PK studies as they allow for assessments in the absence of confounding factors such as comorbid conditions and concomitant medications. In this study, only male subjects were enrolled as the target patient population for clinical use of apalutamide consists of male subjects with CRPC.
The potential risks to subjects in this study included exposure to study drugs, with a potential for AEs. […] Subjects were monitored for AEs throughout the study, and an expert investigator was chosen to conduct the study. In each treatment period, subjects were confined to the study center until completion of the 72-hour PK assessments on Day 4 and returned to the study center for additional assessments up to Day 8 after intake of the study drug. Subject's safety was monitored at regular intervals throughout the study by physical examination, laboratory safety assessments, ECG and vital signs.

What does the source list for `CNC(=O)c1ccc(N2C(=S)N(c3cnc(C#N)c(C(F)(F)F)c3)C(=O)C23CCC3)cc1F` [apalutamide, 4-[7-(6-cyano-5-trifluoromethylpyridin-3-yl)-8-oxo-6-thioxo-5,7-diazaspiro[3.4]oct-5-yl]-2-fluoro-N-methylbenzamide]?
Biopharmaceutics Classification System class [1]: Class II; tumor regression [2]: partial or complete tumor regression; tolerability (CRPC; 240 mg continuous daily dosing): very well tolerated; median time to PSA progression (CRPC; PA cohort): 16 weeks; median time to PSA progression (CRPC; TN cohort, preliminary 12-week period): not reached; objective response rate (by RECIST) (CRPC; TN patients with measurable disease at baseline): 63%; patients with >50% decline in PSA as compared to baseline (CRPC; non-metastatic CRPC, 12 weeks): 91%; patients with >50% decline in PSA (CRPC; non-metastatic CRPC, 24 weeks): 91%; patients with >90% decline in PSA (CRPC; non-metastatic CRPC, 24 weeks): 55%; median time to PSA progression (CRPC; non-metastatic CRPC, observed time period): not reached; patients with 12-week PSA declines of >50% or more from baseline (CRPC; post-abiraterone (PA) metastatic CRPC cohort): 29%; patients with 12-week PSA declines of >50% or more from baseline (CRPC; treatment-naive (TN) metastatic CRPC cohort): 88%; 14C-radioactivity excreted via feces (arithmetic mean) [3]: 24.3%; total 14C-radioactivity excreted in urine (arithmetic mean) [3]: 64.2%; total administered 14C-radioactive dose recovered [3]: 88.9%; AUC0-72h Intra-subject CV(%) [4]: 3.7%; AUC0-168h Intra-subject CV(%) [4]: 2.7%; Cmax Intra-subject CV(%) [4]: 13.8%; Cmax lower with a high-fat meal compared to fasted ([5]; fed vs fasted): approximately 16%; extent of absorption based on AUC∞ under fed conditions ([5]; fed vs fasted): remained unchanged; bioavailability ([5]; human, in vivo, oral, single dose 240 mg, read-out: absolute bioavailability): ~100%; Cmax ([5]; human, plasma, oral, 240 mg, N=15, read-out: mean single dose plasma Cmax): ~2400 ng/mL; half-life ([5]; human, plasma, oral, 240 mg, human, read-out: half-life (converted)): ~168 h; Cmax ([5]; human, plasma, oral, 240 mg, read-out: mean Cmax from a similar study): 2420 ng/mL; half-life ([5]; human, plasma, oral, 240 mg, read-out: mean elimination half-life (t1/2) (converted)): ~162 h; AUC(0-t) ([5]; human, plasma, oral, 240 mg, N=15, read-out: AUC0-168 h from another bioavailability study): 121 µg·h/mL; AUC ([5]; human, plasma, oral, 240 mg, N=15, read-out: mean AUC28): 225 µg·h/mL; Tmax ([5]; human, plasma, oral, single 240-mg dose, tablet, healthy subjects, read-out: median Tmax): 2 to 3 h; Fabs ([5]; single dose 240 mg): 1.11; time the drug was found to be stable in applesauce [6]: at least 6 hours; testosterone and luteinizing hormone (LH) ([7]; healthy men, 240 mg): transient increase; TSH ([7]; healthy men, single dose 240 mg): Reversible mild increases; tolerability of single doses up to 240 mg ([7]; human, in vivo): well tolerated
